# Assay results: US7205302B2, “Heterocyclic compound derivatives and medicines” (Nippon Shinyaku Co., Ltd., priority 2001, dated 2007)
# Counter-ions that a name gives are not always drawn.
# Tested on: not given
# Test: not given
# Conditions: not given
row,SMILES,melting point
1,"Cc1ccc(-c2ncc(N(CCCCOCC(=O)O)C(C)C)nc2-c2ccc(C)cc2)cc1 [Example 45, 2-{4-[N-(5,6-di-p-tolylpyrazin-2-yl)-N-isopropylamino]butyloxy}acetic acid]",155 to 156 °C
2,"O=C(O)COCCCCN(c1cnc(-c2ccccc2)c(-c2ccccc2)n1)C1CCCCC1 [Example 44, 2-{4-[N-(5,6-diphenylpyrazin-2-yl)-N-cyclohexylamino]butyloxy}acetic acid]",130 to 131 °C
3,"O=C(O)COCCCCSc1cnc(-c2ccccc2)c(-c2ccccc2)n1 [Example 76, 2-{4-[(5,6-diphenylpyrazin-2-yl)thio]butyloxy}acetic acid]",86 to 88 °C
4,"CN(c1cnc(-c2ccccc2)c(-c2ccccc2)n1)C1CCc2c(OCC(=O)O)cccc21 (stereo not drawn) [Example 62, 4-(carboxymethoxy)-1-[N-(5,6-diphenylpyrazin-2-yl)-N-methylamino]indane]",182 to 184 °C
5,"CN(C[C@H](O)c1cccc(OCC(=O)O)c1)c1cnc(-c2ccccc2)c(-c2ccccc2)n1 [Example 59, (R)-(+)-2-[3-{2-[N-(5,6-diphenylpyrazin-2-yl)-N-methylamino]-1-hydroxyethyl}phenoxy]acetic acid]",158 to 159 °C
6,"CN(C/C=C/COCC(=O)O)c1cnc(-c2ccccc2)c(-c2ccccc2)n1 [Example 72, 2-{4-[N-(5,6-diphenylpyrazin-2-yl)-N-methylamino]-(E)-2-buten-1-yloxy]acetic acid]",128 to 130 °C
7,"CN(CC1CCc2c(cccc2OCC(=O)O)C1)c1cnc(-c2ccccc2)c(-c2ccccc2)n1 (stereo not drawn) [Example 77, 5-(carboxymethoxy)-2-{[N-(5,6-diphenylpyrazin-2-yl)-N-methylamino]methyl}-1,2,3,4-tetrahydronaphthalene]",212 to 213 °C
8,"CN(C/C=C\COCC(=O)O)c1cnc(-c2ccccc2)c(-c2ccccc2)n1 [Example 71, 2-{4-[N-(5,6-diphenylpyrazin-2-yl)-N-methylamino]-(Z)-2-buten-1-yloxy]acetic acid]",148 to 150 °C
9,"O=C(O)COCCCCS(=O)(=O)c1cnc(-c2ccccc2)c(-c2ccccc2)n1 [Example 82, 2-[4-(5,6-diphenylpyrazin-2-sulfonyl)butyloxy]acetic acid]",123 to 125 °C
10,"O=C(O)COCCCCN(c1cnc(-c2ccccc2)c(-c2ccccc2)n1)C1CCCC1 [Example 43, 2-{4-[N-(5,6-diphenylpyrazin-2-yl)-N-cyclopentylamino]butyloxy}acetic acid]",101 to 103 °C
11,"O=C(O)COCCCCC1CCCN1c1cnc(-c2ccccc2)c(-c2ccccc2)n1 (racemic) [Example 57, (±)-2-{4-[1-(5,6-diphenylpyrazin-2-yl)pyrrolidin-2-yl]butyloxy}acetic acid]",138 to 140 °C
12,"O=C(O)COCCC1CCCN(c2cnc(-c3ccccc3)c(-c3ccccc3)n2)C1 (racemic) [Example 58, (±)-2-{2-[1-(5,6-diphenylpyrazin-2-yl)piperidin-3-yl]ethoxy}acetic acid]",139 to 140 °C
13,"CC(C)N(CCCCOCC(=O)O)c1nnc(-c2ccccc2)c(-c2ccccc2)n1 [Example 49, 2-{4-[N-(5,6-diphenyl-1,2,4-triazin-3-yl)-N-isopropylamino]butyloxy}acetic acid]",128 to 130 °C
14,"Cc1ccc(-c2ncc(N(C)CCCCOCC(=O)O)nc2-c2ccc(C)cc2)cc1 [Example 50, 2-{4-[N-(5,6-di-p-tolylpyrazin-2-yl)-N-methylamino]butyloxy}acetic acid]",161 to 162 °C
15,"COc1ccc(-c2ncc(N(C)CCCCOCC(=O)O)nc2-c2ccc(OC)cc2)cc1 [Example 51, 2-[4-{N-[5,6-bis(4-methoxyphenyl)pyrazin-2-yl]-N-methylamino}butyloxy]acetic acid]",128 to 130 °C
16,"CN(CCCCCCCC(=O)O)c1cnc(-c2ccccc2)c(-c2ccccc2)n1 [Example 66, 8-[N-(5,6-diphenylpyrazin-2-yl)-N-methylamino]octanoic acid]",116 to 117 °C
17,"CN(CCCCOCC(=O)O)c1cnc(-c2ccc(F)cc2)c(-c2ccc(F)cc2)n1 [Example 52, 2-[4-{N-[5,6-bis(4-fluorophenyl)pyrazin-2-yl]-N-methylamino}butyloxy]acetic acid]",116 to 118 °C
18,"CN(CCCCCC(=O)O)c1cnc(-c2ccccc2)c(-c2ccccc2)n1 [Example 68, 6-[N-(5,6-diphenylpyrazin-2-yl)-N-methylamino]hexanoic acid]",159 to 160 °C
19,"O=C(O)COCCCC1CCCN1c1cnc(-c2ccccc2)c(-c2ccccc2)n1 (racemic) [Example 55, (±)-2-{3-[1-(5,6-diphenylpyrazin-2-yl)pyrrolidin-2-yl]propyloxy}acetic acid]",137 to 139 °C
20,"CC(C)N(CCCCOCC(=O)O)c1nc(-c2ccccc2)c(-c2ccccc2)nc1Cl [Example 47, 2-{4-[N-(3-chloro-5,6-diphenylpyrazin-2-yl)-N-isopropylamino]butyloxy}acetic acid]",136 to 138 °C
21,"O=C(O)COCCC1CCN(c2cnc(-c3ccccc3)c(-c3ccccc3)n2)CC1 [Example 54, 2-{2-[1-(5,6-diphenylpyrazin-2-yl)piperidin-4-yl]ethoxy}acetic acid]",173 to 174 °C
22,"CC(C)N(CCCC[S+]([O-])CC(=O)O)c1cnc(-c2ccccc2)c(-c2ccccc2)n1 (stereo not drawn) [Example 79, 2-{4-[N-(5,6-diphenylpyrazin-2-yl)-N-isopropylamino]butylsulfinyl}acetic acid]",117 to 120 °C (dec.)
23,"CC(C)N(CCCCS(=O)(=O)CC(=O)O)c1cnc(-c2ccccc2)c(-c2ccccc2)n1 [Example 80, 2-{4-[N-(5,6-diphenylpyrazin-2-yl)-N-isopropylamino]butylsulfonyl}acetic acid]",183 to 185 °C
24,"CN(CCCCCCC(=O)O)c1cnc(-c2ccccc2)c(-c2ccccc2)n1 [Example 65, 7-[N-(5,6-diphenylpyrazin-2-yl)-N-methylamino]heptanoic acid]",114 to 118 °C
25,"CN(CCc1cccc(OCC(=O)O)c1)c1cnc(-c2ccccc2)c(-c2ccccc2)n1 [Example 61, 2-[3-{2-[N-(5,6-diphenylpyrazin-2-yl)-N-methylamino]ethyl}phenoxy]acetic acid]",174 to 176 °C
26,"CN(CCCCCCCCC(=O)O)c1cnc(-c2ccccc2)c(-c2ccccc2)n1 [Example 67, 9-[N-(5,6-diphenylpyrazin-2-yl)-N-methylamino]nonanoic acid]",103 to 105 °C
27,"CN(CCCCOCC(=O)O)c1nnc(-c2ccccc2)c(-c2ccccc2)n1 [Example 56, 2-{4-[N-(5,6-diphenyl-1,2,4-triazin-3-yl)-N-methylamino]butyloxy}acetic acid]",108 to 110 °C

# Tested on: ADP-induced platelet aggregation in human PRP
# Test: Human platelet aggregation inhibition test
# Type: cell-based
# Conditions: ADP 1×10^−5 M
# Experimental: Human Platelet Aggregation Inhibition Test
# Blood collected from healthy human volunteers into aqueous trisodium citrate solution was centrifuged at 200×g for 10 minutes and the upper layer was recovered to obtain platelet-rich plasma (PRP). The residual blood containing trisodium citrate added therein was centrifuged at 1500×g for 10 minutes and the supernatant was collected as platelet-poor plasma (PPP). The number of platelets in the PRP was adjusted to about 300,000/μl by PPP. Platelet aggregation was measured by an aggregometer. 180 μl of PRP was added to cuvettes and incubated at 37° C. for one minute, and then 10 μl of test compound solution (prepared by dissolving a test compound with a 1.5-fold mole of a sodium hydroxide solution and diluting with water) was added and the mixture was further incubated for 2 minutes. Then, 10 μl of aqueous adenosine diphosphate (ADP) solution was added to adjust the final concentration as 1×10^−5 M and platelet aggregation was induced and observed for 7 minutes. Inhibition percentage of aggregation was calculated from the percentage of aggregation upon the addition of the test compound to the percentage of aggregation upon the addition of water in place of the test compound solution (control).
row,SMILES,IC50 [nM]
1,"CN(CCCCOCC(=O)O)c1ccc(-c2ccccc2)c(-c2ccccc2)n1 [Example 46, 2-{4-[N-(5,6-diphenylpyridin-2-yl)-N-methylamino]butyloxy}acetic acid sodium salt]",500
2,"Cc1ccc(-c2cnc(N(C)CCCCOCC(=O)O)nc2-c2ccc(C)cc2)cc1 [Example 75, 2-{4-[N-(4,5-di-p-tolylpyrimidin-2-yl)-N-methylamino]butyloxy}acetic acid]",200

# Tested on: ADP-induced platelet aggregation in monkey PRP
# Test: Ex vivo platelet aggregation inhibition test in monkeys
# Set-up: species or system cynomolgus monkeys (Macaca fascicularis)
# Conditions: Macaca fascicularis, Platelet; oral 0.3 mg/kg, 2 h after administration; read-out: Inhibition percentage of platelet aggregation in monkeys
# Experimental: Ex Vivo Platelet Aggregation Inhibition Test in Monkeys
# The compound of Example 84 was orally administered to two cynomolgus monkeys (Macaca fascicularis, male, aged 3 to 5) at a dose of 0.3 or 1 mg/kg. Before the administration or 2, 4 and 8 hours after the administration, blood (each 4.5 ml) was collected using an injection cylinder containing aqueous 3.8% citric acid solution in the amount of 1/10 of the volume of blood to be collected. Blood containing citric acid solution was centrifuged at 200×g for 10 minutes and the upper layer was collected as PRP. Furthermore, the residual blood was centrifuged at 1500×g for 10 minutes and the supernatant was collected as PPP. 190 μl of PRP was added to a cuvette and incubated at 37° C. for one minute, and then 10 μl of ADP solution (5 to 30 μM) was added to induce platelet aggregation. The percentage of platelet aggregation was measured by an aggregometer (PM8C, Mebanix, Tokyo) using PPP as the blank and inhibition percentage of platelet aggregation was determined by comparing the percentage of aggregation before administration of the compound with the percentage of aggregation after administration of the compound according to the following equation. Inhibition percentage of Platelet Aggregation (%)=100−(The percentage of Aggregation after administration of compound)/(The percentage of Aggregation before administration of compound)×100
row,SMILES,inhibition at 0.3 mg/kg [%]
1,"CC(C)N(CCCCOCC(=O)NS(C)(=O)=O)c1cnc(-c2ccccc2)c(-c2ccccc2)n1 [Example 84, 2-{4-[N-(5,6-diphenylpyrazin-2-yl)-N-isopropylamino]butyloxy}-N-(methylsulfonyl)acetamide]",28

# Same assay, conditions: Macaca fascicularis, Platelet; oral 0.3 mg/kg, 4 h after administration; read-out: Inhibition percentage of platelet aggregation in monkeys
row,SMILES,inhibition at 0.3 mg/kg [%]
1,"CC(C)N(CCCCOCC(=O)NS(C)(=O)=O)c1cnc(-c2ccccc2)c(-c2ccccc2)n1 [Example 84, 2-{4-[N-(5,6-diphenylpyrazin-2-yl)-N-isopropylamino]butyloxy}-N-(methylsulfonyl)acetamide]",34

# Same assay, conditions: Macaca fascicularis, Platelet; oral 0.3 mg/kg, 8 h after administration; read-out: Inhibition percentage of platelet aggregation in monkeys
row,SMILES,inhibition at 0.3 mg/kg [%]
1,"CC(C)N(CCCCOCC(=O)NS(C)(=O)=O)c1cnc(-c2ccccc2)c(-c2ccccc2)n1 [Example 84, 2-{4-[N-(5,6-diphenylpyrazin-2-yl)-N-isopropylamino]butyloxy}-N-(methylsulfonyl)acetamide]",19

# Same assay, conditions: Macaca fascicularis, Platelet; oral 1 mg/kg, 2 h after administration; read-out: Inhibition percentage of platelet aggregation in monkeys
row,SMILES,inhibition at 1 mg/kg [%]
1,"CC(C)N(CCCCOCC(=O)NS(C)(=O)=O)c1cnc(-c2ccccc2)c(-c2ccccc2)n1 [Example 84, 2-{4-[N-(5,6-diphenylpyrazin-2-yl)-N-isopropylamino]butyloxy}-N-(methylsulfonyl)acetamide]",63

# Same assay, conditions: Macaca fascicularis, Platelet; oral 1 mg/kg, 4 h after administration; read-out: Inhibition percentage of platelet aggregation in monkeys
row,SMILES,inhibition at 1 mg/kg [%]
1,"CC(C)N(CCCCOCC(=O)NS(C)(=O)=O)c1cnc(-c2ccccc2)c(-c2ccccc2)n1 [Example 84, 2-{4-[N-(5,6-diphenylpyrazin-2-yl)-N-isopropylamino]butyloxy}-N-(methylsulfonyl)acetamide]",40

# Same assay, conditions: Macaca fascicularis, Platelet; oral 1 mg/kg, 8 h after administration; read-out: Inhibition percentage of platelet aggregation in monkeys
row,SMILES,inhibition at 1 mg/kg [%]
1,"CC(C)N(CCCCOCC(=O)NS(C)(=O)=O)c1cnc(-c2ccccc2)c(-c2ccccc2)n1 [Example 84, 2-{4-[N-(5,6-diphenylpyrazin-2-yl)-N-isopropylamino]butyloxy}-N-(methylsulfonyl)acetamide]",52

# Same assay, conditions: oral 0.3 or 1 mg/kg, 2 to 8 hours after administration
row,SMILES,ex vivo platelet aggregation inhibition (in words)
1,"CC(C)N(CCCCOCC(=O)NS(C)(=O)=O)c1cnc(-c2ccccc2)c(-c2ccccc2)n1 [Example 84, 2-{4-[N-(5,6-diphenylpyrazin-2-yl)-N-isopropylamino]butyloxy}-N-(methylsulfonyl)acetamide]",inhibits platelet aggregation persistently in a dose-dependent manner
